# Measured values published in patent publication EP3521435A1, “A HIGH STRINGENCY SELECTION SYSTEM FOR PROTEIN EXPRESSION IN PROLINE-AUXOTROPHIC CELLS” (Bayer AG, priority 2018, dated 2019).
# Read-outs that look alike come from different tables or passages of the source.
# How the values were obtained:
# CHO-K1 cells [1] = assay: Cell viability post-transfection of transfected cell populations under selection conditions; type: cell-based, Chinese hamster
# Description: (§1) To efficiently test the impact of different procedures on improving selection stringency, experimental testing in stable cell populations was performed. As test molecules, enhanced green fluorescent protein (GFP) as well as a human IgG1 were chosen. CHO-K1 cells adapted to growth in suspension in defined medium were obtained from SAFC and cultivated in EX-CELL CD CHO Fusion medium (SAFC 14365C). Custom-made EX-CELL CD CHO Fusion medium without L-Proline (Pro) and without L-Ornithine (Orn) ("proline-free medium") was obtained from SAFC. The expression vector system was based on modified versions of "CET 1019 AS-puro-SceI" and "CET 1019 AD-puro-SceI" for GFP and human IgG1, respectively, from Merck-Millipore, containing the Puromycin selection marker (Puromycin N-acetyl-transferase) known to exert a high selection stringency. To minimize variations in cell populations derived from using different transfections or different vectors, the first series of experiments were conducted using vectors into which a P5CS expression cassette was cloned upstream of a UCOE element, in addition to the Puromycin selection marker present downstream of a gene of interest. This way, it was possible to pool different transfections using the same vector to obtain a common starting point, and split the mixture according to different selection conditions, minimizing any variations that are not due to selection conditions themselves. Expression of long and short isoform of murine P5CS (Protein: Delta-1-pyrroline-5-carboxylate synthase; Gene: Aldh18a1; UniProtKB accession number: Q9Z110-1 & Q9Z110-2) was driven by a SV40 promoter. A SV40 polyadenylation sequence was used at the 3' end of the gene. More details can be found in Table 1. Typically, CHO cells were cultivated in EX-CELL CD CHO Fusion medium containing 6 mM GlutaMAX (Thermo Fisher, 35050-38) ("CD-Fusion medium") at 37 °C with 5% CO2. Cells were grown to logarithmic phase under shaking conditions for transfections. 1e7 cells/cuvette were transfected using nucleofection (Amaxa Nucleofector II, following the manufacturer's recommendations) with 5 µg of linearized DNA. After transfection, cells were taken up in 1 ml medium and transferred into 1 well of a 6 well microtiter plate (MTP) already containing 1 ml medium. The cells were incubated for 24 h without shaking, after which 9 ml medium were added and cells were washed (either in standard or proline-free medium). Multiple transfections were pooled, if applicable. Cells were adjusted to 2e5 viable cells/ml and 10 ml were transferred to T-25 flasks. Reference cell populations were selected using 10 µg/ml Puromycin in CD-Fusion medium. For P5CS-based selection, EX-CELL CD CHO Fusion medium (custom-made, SAFC) containing 6 mM GlutaMAX without proline and without ornithine was used ("proline-free" or "CD-Fusion w/o Pro" medium), with or without additional selection pressure.
# (§2) Cell viability of the different populations was monitored over time. As soon as cell populations appeared to recover from selection pressure, cells were transferred to Shake Flask or TubeSpins for expansion in suspension under shaking conditions. Subsequently, stable cell populations transfected with IgG were seeded at 2e5 viable cells/ml for batch fermentation without selection pressure (i.e. standard CD-Fusion medium containing proline and no other selective agents). The cells were cultivated for 5-10 days, viable cell densities and productivity were monitored over time. IgG titers were determined using Poros A-HPLC method. Typically, final batch titers were recorded at a time point at which majority of cultures had around 70% viability. Stable cell populations transfected with GFP vector were subjected to analysis by flow cytometry using Guava easyCyte 8HT Benchtop Flow Cytometer (Millipore). 250 µl of cell culture were transferred to 96 MTP and washed with PBS. Dead cells were excluded from analysis using propidium iodide (PI). […]
# CHO-K1 cells [2] = assay: Batch fermentation in shake flasks of human IgG1 expressing stable cell populations (Poros A-HPLC titer, viable cell density, viability); type: cell-based, Chinese hamster; settings: human IgG1, pJF1577, non-selecting conditions
# Description: as §1, §2
# CHO-K1 cells [3] = assay: Flow cytometric analysis of GFP expression (MFI, high fluorescing cells) in stably selected cell populations; type: cell-based, Chinese hamster
# Description: as §1, §2
# CHO-S cells = test system: CHO-S cells
# Description: CHO-S cells (Thermo Fisher Scientific, A1155701) were passaged according to the manufacturer's recommendations at 37 °C and 5% CO2 in CD-CHO medium (Thermo Fisher Scientific , 10743029) containing 8 mM GlutaMAX. […] Viable cell densities and viabilities were recorded daily.
# [4] = day 20 post-transfection, pJF1556, CD-Fusion w/o Pro + 0.1 mM A2C
# [5] = day 20 post-transfection, pJF1556, CD-Fusion w/o Pro + 0.1 mM A2C + 10 µg/ml Puromycin
# [6] = day 20 post-transfection, pJF1556, CD-Fusion w/o Pro + 0.25 mM A2C
# [7] = Day 1, Proline-free Medium + 0,5mM L-Prolin
# [8] = Day 1, Proline-free Medium + 0,25mM L-Prolin
# [9] = Day 1, Proline-free Medium + 1,0mM L-Prolin
# [10] = Day 1, Proline-free Medium + 2,5mM L-Prolin
# [11] = Day 2, Proline-free Medium + 0,5mM L-Prolin
# [12] = Day 2, Proline-free Medium + 0,25mM L-Prolin
# [13] = Day 2, Proline-free Medium + 1,0mM L-Prolin
# [14] = Day 2, Proline-free Medium + 2,5mM L-Prolin
# [15] = Day 3, Proline-free Medium + 0,5mM L-Prolin
# [16] = Day 3, Proline-free Medium + 0,25mM L-Prolin
# [17] = Day 3, Proline-free Medium + 1,0mM L-Prolin
# [18] = Day 3, Proline-free Medium + 2,5mM L-Prolin
# [19] = Day 6, Proline-free Medium + 0,5mM L-Prolin
# [20] = Day 6, Proline-free Medium + 0,25mM L-Prolin
# [21] = Day 6, Proline-free Medium + 1,0mM L-Prolin
# [22] = Day 6, Proline-free Medium + 2,5mM L-Prolin
smiles,measurement,setting,value
"O=C(O)[C@@H]1CCN1 [A2C, L-Azetidine-2-carboxylic acid]",Viability on day 13 post-transfection,"CHO-K1 cells [1]; MOCK, CD-Fusion w/o Pro + 0.5 mM A2C + 10 µg/ml Puromycin",15%
same,Viability on day 13 post-transfection,"CHO-K1 cells [1]; pJF1556, CD-Fusion w/o Pro + 0.1 mM A2C",85%
same,Viability on day 13 post-transfection,"CHO-K1 cells [1]; pJF1556, CD-Fusion w/o Pro + 0.1 mM A2C + 10 µg/ml Puromycin",62%
same,Viability on day 13 post-transfection,"CHO-K1 cells [1]; pJF1556, CD-Fusion w/o Pro + 0.25 mM A2C",70%
same,Viability on day 13 post-transfection,"CHO-K1 cells [1]; pJF1556, CD-Fusion w/o Pro + 0.25 mM A2C + 10 µg/ml Puromycin",22%
same,Viability on day 13 post-transfection,"CHO-K1 cells [1]; pJF1556, CD-Fusion w/o Pro + 0.5 mM A2C",21%
same,Viability on day 13 post-transfection,"CHO-K1 cells [1]; pJF1556, CD-Fusion w/o Pro + 0.5 mM A2C + 10 µg/ml Puromycin",21%
same,Batch titer day 7,CHO-K1 cells [2]; selected in CD-Fusion w/o Pro + 0.1 mM A2C + 10 µg/ml Puromycin,82 mg/L
same,Batch titer day 7,CHO-K1 cells [2]; selected in CD-Fusion w/o Pro + 0.1 mM A2C,135 mg/L
same,Batch titer day 7,CHO-K1 cells [2]; selected in CD-Fusion w/o Pro + 0.25 mM A2C + 10 µg/ml Puromycin,145 mg/L
same,Batch titer day 7,CHO-K1 cells [2]; selected in CD-Fusion w/o Pro + 0.25 mM A2C,166 mg/L
same,Batch titer day 7,CHO-K1 cells [2]; selected in CD-Fusion w/o Pro + 0.5 mM A2C + 10 µg/ml Puromycin,34 mg/L
same,Batch titer day 7,CHO-K1 cells [2]; selected in CD-Fusion w/o Pro + 0.5 mM A2C,166 mg/L
same,Frequency of high fluorescing cells,CHO-K1 cells [3]; [4],7.1%
same,Median Fluorescence Intensity (MFI) (yellow),CHO-K1 cells [3]; [4],5743
same,Frequency of high fluorescing cells,CHO-K1 cells [3]; [5],13.6%
same,Median Fluorescence Intensity (MFI) (yellow),CHO-K1 cells [3]; [5],9448
same,Frequency of high fluorescing cells,CHO-K1 cells [3]; [6],7.1%
same,Median Fluorescence Intensity (MFI) (yellow),CHO-K1 cells [3]; [6],7578
O=C(O)[C@@H]1C[C@@H](O)CN1 [trans-4-Hydroxy-L-Proline],Viability on day 12 post-transfection,"CHO-K1 cells [1]; pJF1555, CD-Fusion w/o Pro + 5 mM trans-4-Hydroxy-L-Proline",84%
same,Viability on day 12 post-transfection,"CHO-K1 cells [1]; pJF1555, CD-Fusion w/o Pro + 10 mM trans-4-Hydroxy-L-Proline",84%
same,selection pressure,"CHO-K1 cells [1]; up to 10 mM, pJF1555, proline-free medium",no increased selection pressure observable
same,Frequency of high fluorescing cells,"CHO-K1 cells [3]; day 15 post-transfection, pJF1555, CD-Fusion w/o Pro + 5 mM trans-4-Hydroxy-L-Proline",2.6%
same,Frequency of high fluorescing cells,"CHO-K1 cells [3]; day 15 post-transfection, pJF1555, CD-Fusion w/o Pro + 10 mM trans-4-Hydroxy-L-Proline",2.6%
"O=C(O)[C@@H]1CCCN1 [L-Prolin, L-Proline]",Viability,CHO-S cells; [7],"98,2"
same,Viable Cell Conc.,CHO-S cells; [7],"3,7E+05"
same,Viability,CHO-S cells; [8],"95,6"
same,Viable Cell Conc.,CHO-S cells; [8],"3,5E+05"
same,Viability,CHO-S cells; [9],"100,0"
same,Viable Cell Conc.,CHO-S cells; [9],"3,6E+05"
same,Viability,CHO-S cells; [10],"99,3"
same,Viable Cell Conc.,CHO-S cells; [10],"3,3E+05"
same,Viability,CHO-S cells; [11],"99,7"
same,Viable Cell Conc.,CHO-S cells; [11],"6,3E+05"
same,Viability,CHO-S cells; [12],"98,1"
same,Viable Cell Conc.,CHO-S cells; [12],"5,7E+05"
same,Viability,CHO-S cells; [13],"99,7"
same,Viable Cell Conc.,CHO-S cells; [13],"5,6E+05"
same,Viability,CHO-S cells; [14],"97,5"
same,Viable Cell Conc.,CHO-S cells; [14],"4,9E+05"
same,Viability,CHO-S cells; [15],"99,5"
same,Viable Cell Conc.,CHO-S cells; [15],"1,2E+06"
same,Viability,CHO-S cells; [16],"99,6"
same,Viable Cell Conc.,CHO-S cells; [16],"9,1E+05"
same,Viability,CHO-S cells; [17],"99,2"
same,Viable Cell Conc.,CHO-S cells; [17],"1,1E+06"
same,Viability,CHO-S cells; [18],"99,8"
same,Viable Cell Conc.,CHO-S cells; [18],"1,1E+06"
same,Viability,CHO-S cells; [19],"99,9"
same,Viable Cell Conc.,CHO-S cells; [19],"3,8E+06"
same,Viability,CHO-S cells; [20],"98,2"
same,Viable Cell Conc.,CHO-S cells; [20],"1,3E+06"
same,Viability,CHO-S cells; [21],"99,5"
same,Viable Cell Conc.,CHO-S cells; [21],"6,6E+06"
same,Viability,CHO-S cells; [22],"99,7"
same,Viable Cell Conc.,CHO-S cells; [22],"6,3E+06"
